Literature values, collected in patent publication US20250255843A1, “COMPOSITIONS COMPRISING CYSTEINE PRODRUGS AND METHODS USING THEREOF” (Nature's Fusions, LLC, priority 2022, published 2025).

Experiments:
[1] = in vivo
[2] = system: plasma GSH
[3] = more stable than cysteine
[4] = cell membrane
[5] = oral; metabolized in liver and kidney
[6] = system: oxidative damage; settings: relative to NAC

Row | bioavailability [1] | stability relative to cysteine [3] | membrane penetration [4] | detectability in plasma [5] | SMILES | increase of plasma ([2]; medium to high doses (up to 8 g/day)) | increase of plasma GSH ([2]; lower than 8 g/day doses) | protective agent against oxidative damage, concentration lower than that of NAC [6]
1 | 4-6% | about 10 times | poorly membrane penetrable | almost undetectable in plasma | CC(=O)N[C@@H](CS)C(=O)O [NAC, N-acetyl L-cysteine] | 5-20% | – | –
2 | 60-80% | – | cell-permeable | – | CCOC(=O)[C@H](CS)NC(C)=O [NACET, N-acetyl L-cysteine ethyl ester] | – | 250% | 5-10 times
